Experimental data published in patent publication US4105768A, “Hypotensive substituted 1,2,4-triazoles” (priority 1973, dated 1978).
Like-named read-outs stand apart in the source and are kept apart here.

Experiments:
[1] = Acute toxicity in mice (LD50 i.p.); settings: mouse, in vivo, ip
mice = assay: Effect on the spontaneous motor activity of mice; type: in vivo, mouse; settings: i.p., mice; compared to Wy-8678
Description: (§1) The effect on the spontaneous motor activity was tested in mice. Groups of six animals were given the test compounds intraperitoneally one and three hours before test. The animals were placed individually in an activity meter and the activity was recorded for ten minutes. The dose which reduced the spontaneous motor activity to 50 percent of that of control mice was calculated.

[2] = Effect on the spontaneous motor activity of mice; type: in vivo, mouse; settings: mouse, in vivo, ip, read-out: Intraperitoneal dose which reduced the spontaneous motor activity of mice to 50 % of control values; for ED50 at 1 h: measurements one hour after administration; for ED50 at 3 h: measurements three hours after administration
Description: as §1

renal hypertensive rats = assay: Antihypertensive effect (mean arterial blood pressure) in unanaesthetized renal hypertensive rats, oral; type: in vivo, rat; settings: for Minimum daily oral dose with antihypertensive effects defined as the dose which reduced the mean arterial blood pressure more than 15 mm Hg in unanaesthetized renal hypertensive rats: three consecutive daily oral doses, measured before and three hours after administration
Description: The antihypertensive effects were tested in rats in which high blood pressure had been produced by removal of one kidney and restricting the blood flow to the remaining one two months before the experiments. The animals were prepared for measurements of the arterial blood pressure through a catheter implanted into the abdonimal aorta and exteriorized at the base of the neck. Groups of two rats were given three consecutive daily oral doses of the test compounds from the scale: 2.5, 5, 10, 20, and 40 mg/kg. Measurements were performed before and three hours after administration to the unanaesthetized animal. The minimum daily oral dose with antihypertensive effect was defined as the dose which reduced the mean arterial blood pressure more than 15 mm Hg.

[3] = test system: spontaneously hypertensive rats of the SHR/N strain; assay: Antihypertensive effect in spontaneously hypertensive rats, oral; type: in vivo; settings: Rattus norvegicus, 3 h; three consecutive daily oral doses; measured before and three hours after administration; unanesthetized SHR/N rats; read-out: effective antihypertensive dose, defined as the dose which reduced the mean arterial blood pressure more than 30 mm Hg
Description: The antihypertensive effects of the hydrochloride salt of the compound of the invention with the designation FLA 486 having the formula [drawing 25] have been compared with those of FLA 136 with the formula [drawing 26] in spontaneously hypertensive rats of the SHR/N strain (Mollegaard Hansens Avlslaboratorier A/S, Denmark). The animals were prepared for measurements of the arterial blood pressure through a catheter implanted into the abdominal aorta and exteriorized at the base of the neck. Groups of two rats were given three consecutive daily oral doses of the test compounds. Measurements were performed before and three hours after administration to the unanesthetized animal. The effective antihypertensive dose of FLA 486, defined as the dose which reduced the mean arterial blood pressure more than 30 mm Hg was 5-10 mg/kg. The corresponding value for FLA 136 was 5-10 mg/kg.

anaesthetized rats = type: in vivo, rat

Row | Compound | LD50 [1] [mg/kg] | sedative effects (in words) (mice) | ED50 at 1 h [2] [mg/kg] | ED50 at 3 h [2] [mg/kg] | antihypertensive effect (in words) (renal hypertensive rats; oral, compared with Wy-8678) | Minimum daily oral dose with antihypertensive effects defined as the dose which reduced the mean arterial blood pressure more than 15 mm Hg in unanaesthetized renal hypertensive rats (renal hypertensive rats) [mg/kg] | minimal effective dose [3] [mg/kg] | initial rise in blood pressure (anaesthetized rats; rat, in vivo, iv, 40 mg/kg) | initial rise in blood pressure (anaesthetized rats; intravenous, consecutive increasing doses, anaesthetized rats, highest dose tested of test compound 40 mg/kg)
1 | Cl.Nn1cnnc1NN=Cc1c(Cl)cccc1Cl [FLA 136, 4-Amino-3-(2,6-dichlorobenzylidenehydrazino)-1,2,4-triazole hydrochloride] | 340 | lack of sedative effects | 90 | 170 | of the same degree as that of one of the present known most active hypotensive compounds | 2.5 to 5 | 5 to 10 | did not produce an initial rise in blood pressure even at 40 mg/kg | 
2 | CNn1cnnc1NN=Cc1c(Cl)cccc1Cl [FLA 486] |  |  |  |  |  |  | 5 to 10 |  | 
3 | NC(N)=NN=Cc1c(Cl)cccc1Cl [Wy-8678, reference compound] | 70 |  | 3 | 3 |  | 2.5 |  |  | produced a large increase in arterial pressure even at doses as low as 0.01 mg/kg
